Results reported in US20220257767A1, “IONIC LIQUIDS FOR DRUG DELIVERY” (PRESIDENT AND FELLOWS OF HARVARD COLLEGE, priority 2019, published 2022).
In brackets after ≈: the same amount, converted by molar mass. Entries after “also recorded” stand apart in the source; their conditions may differ. Read-outs that look alike come from different tables or passages of the source.

How the values were obtained:
porcine skin [1] = test: Skin penetration studies using porcine skin in Franz diffusion cells, drug quantified by HPLC; conditions: 24 h, listed as pure geranic acid
Source text: (§1) Skin Penetration Studies. The skin penetration studies were undertaken using porcine skin in Franz diffusion cells, as described in full previously (skin area=1.7 cm^2). […] Briefly, thawed, washed porcine skin was placed in a diffusion cell with the SC facing upwards. The acceptor component of the cell was filled with PBS and equipped with a magnetic stirrer bar. Only cells with a measured trans-epidermal current less than 12 μA were used in the study and the treatments were randomly assigned. 300 μL of drug solution in each IL (1 mg/mL) was placed on top of the skin, ensuring full coverage. The cell was placed on a stirrer plate at 37° C. for 24 hours, at which point the skin was removed and the surface was washed gently with PBS. Each skin layer was then separated. The stratum corneum was removed by tape stripping (up to ten layers), the epidermis was separated from the dermis with a scalpel, and a 4 mm punch was used thrice to remove a third of the dermis (by area).
(§2) HPLC Analysis. The analysis of the amount of drug present in each layer was determined by HPLC. […] For ruxolitinib, an Inertsil ODS C-18 column with 250×4.6 mm internal diameter and 5μm particle size was employed.

[2] = exemplary anions, Table 5; cited from earlier work
porcine skin [3] = test system: porcine skin
Source text: as §1, §2

[4] = Solubility of the model drugs in PBS and in CAGE variants; assay type: physicochemical; conditions: PBS, aqueous buffer
[5] = model drugs; cited from earlier work

| Compound | LogP [2] | pKa [2] | also measured |
| --- | --- | --- | --- |
| CC(C)=CCC/C(C)=C/C(=O)O [Geranic Acid] | 2.72 | 5.26 | delivery/transport of acarbose into skin (in words) (porcine skin [1]): no significant transport; also recorded: did not yield a noticeable skin flux; delivery/transport of ruxolitinib into skin (in words) (porcine skin [1]): no significant transport; also recorded: did not yield a noticeable skin flux |
| CCCCC/C=C/C(=O)O [Octenoic Acid, trans-2-octenoic acid] | 2.9 | 5.05 | – |
| CN(C)CCO [2-(dimethylamino)ethanol] | – | 9.3 | – |
| COc1cc(/C=C/C(=O)O)ccc1O [(E)-3-(4-hydroxy-3-methoxy-phenyl)prop-2-enoic acid] | – | 4.42 | – |
| CCCCCCCC(=O)O [Octanoic Acid] | 3.01 | 4.895 | – |
| Hexenoic Acid | 1.8 | 5.13 | – |
| CC(C)=CCCC(C)CC(=O)O (stereo not drawn) [Citronellic Acid, 3,7-dimethyl-6-octenoic acid] | 2.8 | 5.19 | – |
| O=C(O)CCCC(=O)O [Glutaric Acid] | −0.29 | 4.34 | – |
| Choline geranate [CAGE] [listing 1 of 2 here] | – | – | Acarbose: Rank (porcine skin [3]): 1; Average Rank (porcine skin [3]): 1; Ruxolitinib: Rank (porcine skin [3]): 3; delivery/transport of acarbose into skin (in words) (porcine skin [3]): highest delivery efficacy; delivery/transport of ruxolitinib into skin (in words) (porcine skin [3]): highest delivery efficacy |
| CC(C)C(=O)O [2-methylpropanoic acid] | 0.73 | – | – |
| Choline geranate [CAGE] [listing 2 of 2 here] | – | – | Acarbose: Rank (porcine skin [3]): 2; Average Rank (porcine skin [3]): 5; Ruxolitinib: Rank (porcine skin [3]): 8 |
| CCCCC(CC)COS(=O)(=O)[O-].[Na+] (stereo not drawn) [2-ethylhexyl sulfate] | 3.10 | – | – |
| CCC(O)CCCCCCC(=O)O (stereo not drawn) [8-hydroxycapric acid] | 2.2 | – | – |
| O=C(O)C(O)c1ccccc1 (stereo not drawn) [Hydroxyl(phenyl)acetic acid] | 1.2 | 3.41 | – |
| O=C(O)c1ccccc1O [Salicylic Acid] | 2.2 | – | – |
| O=C(O)CCCC[C@@H]1CCSS1 [(R)-5-(1,2-dithiolan-3-yl)pentanoic acid] | – | 5.10 | – |
| C[C@H]1O[C@H](O[C@H]2[C@H](O)[C@@H](O)[C@@H](O[C@H]3[C@H](O)[C@@H](O)C(O)O[C@@H]3CO)O[C@@H]2CO)[C@H](O)[C@@H](O)[C@@H]1N[C@H]1C=C(CO)[C@@H](O)[C@H](O)[C@H]1O (stereo partly drawn) [Acarbose, acarbose] | – | – | solubility [4]: ≥ 1000 µg/mL |
| O=C(O)CCCCCCCC(=O)O [Nonanedioic Acid] | – | 4.55 | – |
| Decenoic Acid | 4.02 | 5.03 | – |
| CCCCCCC(O)C(=O)O (stereo not drawn) [2-hydroxyoctanoic acid] | 1.8 | 4.42 | – |
| N#CC[C@H](C1CCCC1)n1cc(-c2ncnc3[nH]ccc23)cn1 [ruxolitinib] | – | – | Log P [5]: 2.9; solubility [4]: 200 µg/mL (≈ 653 µM) |
